Test results as given in patent publication US8859569B2, “Substituted annellated pyrimidines and use thereof” (Bayer Pharma Aktiengesellschaft, priority 2011, dated 2014).

Columns and labels:
[1] = target: T1, recombinant guanylate cyclase reporter cell line (Rattus norvegicus, UniProt P19686+P20595); experiment: Action on recombinant guanylate cyclase reporter cell line; assay type: cell-based
T1 construct: expressed in transfected cells
T1 sequence (P20595 1-619): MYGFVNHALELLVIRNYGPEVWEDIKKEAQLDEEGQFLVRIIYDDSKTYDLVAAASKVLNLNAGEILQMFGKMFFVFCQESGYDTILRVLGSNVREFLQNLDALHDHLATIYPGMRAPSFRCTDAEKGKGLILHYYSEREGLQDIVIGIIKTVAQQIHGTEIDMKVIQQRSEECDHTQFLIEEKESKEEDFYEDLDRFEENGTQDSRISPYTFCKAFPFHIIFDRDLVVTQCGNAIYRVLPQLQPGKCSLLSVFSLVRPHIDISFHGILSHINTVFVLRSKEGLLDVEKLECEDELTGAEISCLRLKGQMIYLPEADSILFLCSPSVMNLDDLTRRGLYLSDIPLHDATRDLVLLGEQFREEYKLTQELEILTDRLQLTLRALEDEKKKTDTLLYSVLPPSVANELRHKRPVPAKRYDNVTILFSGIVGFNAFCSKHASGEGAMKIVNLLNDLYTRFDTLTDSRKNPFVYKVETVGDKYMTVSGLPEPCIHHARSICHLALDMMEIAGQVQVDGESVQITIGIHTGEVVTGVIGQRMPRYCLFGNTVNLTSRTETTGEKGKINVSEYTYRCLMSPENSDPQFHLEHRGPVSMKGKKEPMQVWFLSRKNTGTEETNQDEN
T1 sequence (P19686 1-690): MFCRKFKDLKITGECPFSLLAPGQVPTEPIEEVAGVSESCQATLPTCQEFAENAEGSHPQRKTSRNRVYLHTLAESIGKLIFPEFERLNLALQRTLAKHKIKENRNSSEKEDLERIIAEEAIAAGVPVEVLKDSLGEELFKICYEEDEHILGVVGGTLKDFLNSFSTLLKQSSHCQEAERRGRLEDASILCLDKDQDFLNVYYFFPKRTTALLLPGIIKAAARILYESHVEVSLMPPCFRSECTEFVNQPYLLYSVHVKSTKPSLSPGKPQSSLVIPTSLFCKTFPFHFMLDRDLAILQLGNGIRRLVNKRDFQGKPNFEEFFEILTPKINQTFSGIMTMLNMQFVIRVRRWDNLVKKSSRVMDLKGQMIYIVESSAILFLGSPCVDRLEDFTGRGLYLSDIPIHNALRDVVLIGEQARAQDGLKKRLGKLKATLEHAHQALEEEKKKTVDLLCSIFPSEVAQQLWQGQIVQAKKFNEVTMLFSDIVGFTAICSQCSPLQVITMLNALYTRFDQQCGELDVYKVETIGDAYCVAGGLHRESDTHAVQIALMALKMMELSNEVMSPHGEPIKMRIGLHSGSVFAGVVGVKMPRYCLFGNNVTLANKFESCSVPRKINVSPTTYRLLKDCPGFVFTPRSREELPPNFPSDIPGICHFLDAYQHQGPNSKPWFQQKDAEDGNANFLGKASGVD
Description: B-2. Action on Recombinant Guanylate Cyclase Reporter Cell Line
The cellular action of the compounds according to the invention is determined on a recombinant guanylate cyclase reporter cell line, as described in F. Wunder et al., Anal. Biochem. 339, 104-112 (2005).

[2] = target: T2, human phosphodiesterase 5 (PDE-5) (Homo sapiens, UniProt O76074); experiment: Inhibition of human phosphodiesterase 5 (PDE-5), SPA assay; assay type: biochemical; conditions: PDE-5 preparation from human platelets, [8-3H]cGMP substrate
T2 construct: PDE-5 preparations are obtained from human platelets by lysis; from tissue; host or cells: human platelets
Description: B-6. Inhibition of Human Phosphodiesterase 5 (PDE-5)
PDE-5 preparations are obtained from human platelets by lysis (Microfluidizer®, 800 bar, 3 passages), followed by centrifugation (75000 g, 60 min, 4° C.) and ion-exchange chromatography of the supernatant on a Mono Q 10/10 column (linear sodium chloride gradient, elution with a 0.2-0.3M solution of sodium chloride in buffer (20 mM Hepes pH 7.2, 2 mM magnesium chloride). Fractions that have PDE-5 activity are combined (PDE-5 preparation) and stored at −80° C.
For determining their in-vitro action on human PDE-5, the test substances are dissolved in 100% DMSO and serial dilutions are prepared. Typically, dilution series (1:3) from 200 μM to 0.091 μM are prepared (resultant final concentrations in the test: 4 μM to 0.0018 μM). In each case 2 μL of the diluted solutions of the substance are put in the wells of microtitre plates (Isoplate-96/200W; Perkin-Elmer). Then 50 μL of a dilution of the PDE-5 preparation described above is added. The dilution of the PDE-5 preparation is selected so that during subsequent incubation less than 70% of the substrate is reacted (typical dilution: 1:100; dilution buffer: 50 mM Tris/hydrochloric acid pH 7.5, 8.3 mM magnesium chloride, 1.7 mM EDTA, 0.2% BSA). The substrate [8-^3H]cyclic guanosine-3′,5′-monophosphate (1 μCi/μL; Perkin-Elmer) is diluted 1:2000 with assay buffer (50 mM Tris/hydrochloric acid pH 7.5, 8.3 mM magnesium chloride, 1.7 mM EDTA) to a concentration of 0.0005 μCi/μL. The enzyme reaction is finally started by adding 50 μL (0.025 μCi) of the diluted substrate. The test preparations are incubated for 60 min at room temperature and the reaction is stopped by adding 25 μL of a suspension of 18 mg/mL of Yttrium Scintillation Proximity Beads in water (phosphodiesterase beads for SPA assays, RPNQ 0150, Perkin-Elmer). The microtitre plates are sealed with film and left to stand for 60 min at room temperature. Then the plates are measured for 30 s per well in a Microbeta scintillation counter (Perkin-Elmer). IC50 values are determined on the basis of the graphs plotted of the substance concentration versus the percentage PDE-5 inhibition.

Structure (SMILES) | MEC (minimal effective concentration) [1] [μm] | IC50 [2] [nM]
CC1(C)C(=O)Nc2nc(-c3nn(Cc4ccccc4F)c4ncccc34)nc(NC3CCOC3)c21 (racemic) [Example 49, 2-[1-(2-fluorobenzyl)-1H-pyrazolo[3,4-b]pyridin-3-yl]-5,5-dimethyl-4-(tetrahydrofuran-3-ylamino)-5,7-dihydro-6H-pyrrolo[2,3-d]pyrimidin-6-one] | 0.3 | 
Cn1nccc1CNc1nc(-c2nn(Cc3ccccc3F)c3ncccc23)nc2c1C(C)(C)C(=O)N2 [Example 40, 2-[1-(2-Fluorobenzyl)-1H-pyrazolo[3,4-b]pyridin-3-yl]-5,5-dimethyl-4-{[(1-methyl-1H-pyrazol-5-yl)methyl]amino}-5,7-dihydro-6H-pyrrolo[2,3-d]pyrimidin-6-one] | 0.1 | 11
Cc1ccc(CNc2nc(-c3nn(Cc4ccccc4F)c4ncccc34)nc3c2C(C)(C)C(=O)N3)o1 [Example 41, 2-[1-(2-fluorobenzyl)-1H-pyrazolo[3,4-b]pyridin-3-yl]-5,5-dimethyl-4-{[(5-methylfuran-2-yl)methyl]amino}-5,7-dihydro-6H-pyrrolo[2,3-d]pyrimidin-6-one] | 0.01 | 170
CC1(C)C(=O)Nc2nc(-c3nn(Cc4ccccc4F)c4ncccc34)nc(NCc3ccccc3F)c21 [Example 42, 4-[(2-fluorobenzyl)amino]-2-[1-(2-fluorobenzyl)-1H-pyrazolo[3,4-b]pyridin-3-yl]-5,5-dimethyl-5,7-dihydro-6H-pyrrolo[2,3-d]pyrimidin-6-one] | 0.1 | 120
CC1(C)C(=O)Nc2nc(-c3nn(Cc4ccccc4F)c4ncccc34)nc(NCC3CC3)c21 [Example 43, 4-[(cyclopropylmethyl)amino]-2-[1-(2-fluorobenzyl)-1H-pyrazolo[3,4-b]pyridin-3-yl]-5,5-dimethyl-5,7-dihydro-6H-pyrrolo[2,3-d]pyrimidin-6-one] | 0.03 | 410
CC(=O)NCCNc1nc(-c2nn(Cc3ccccc3F)c3ncccc23)nc2c1C(C)(C)C(=O)N2 [Example 44, N-[2-({2-[1-(2-fluorobenzyl)-1H-pyrazolo[3,4-b]pyridin-3-yl]-5,5-dimethyl-6-oxo-6,7-dihydro-5H-pyrrolo[2,3-d]pyrimidin-4-yl}amino)ethyl]acetamide] | 0.1 | 86
CC1(C)C(=O)Nc2nc(-c3nn(Cc4ccccc4F)c4ncccc34)nc(NC[C@@H]3CCOC3)c21 [Example 45, 2-[1-(2-fluorobenzyl)-1H-pyrazolo[3,4-b]pyridin-3-yl]-5,5-dimethyl-4-[(tetrahydrofuran-3-ylmethyl)amino]-5,7-dihydro-6H-pyrrolo[2,3-d]pyrimidin-6-one] | 0.1 | 78
CC1(C)C(=O)Nc2nc(-c3nn(Cc4ccccc4F)c4ncccc34)nc(N3C[C@@H]4C[C@H]3CO4)c21 [Example 46, 2-[1-(2-fluorobenzyl)-1H-pyrazolo[3,4-b]pyridin-3-yl]-5,5-dimethyl-4-[(1S,4S)-2-oxa-5-azabicyclo[2.2.1]hept-5-yl]-5,7-dihydro-6H-pyrrolo[2,3-d]pyrimidin-6-one] | 0.1 | 35
CC1(C)C(=O)Nc2nc(-c3nn(Cc4ccccc4F)c4ncccc34)nc(N3CCCCC3)c21 [Example 54, 2-[1-(2-fluorobenzyl)-1H-pyrazolo[3,4-b]pyridin-3-yl]-5,5-dimethyl-4-(piperidin-1-yl)-5,7-dihydro-6H-pyrrolo[2,3-d]pyrimidin-6-one] | 0.03 | 
C[C@@H](O)CNc1nc(-c2nn(Cc3ccccc3F)c3ncccc23)nc2c1C(C)(C)C(=O)N2 [Example 57, 2-[1-(2-fluorobenzyl)-1H-pyrazolo[3,4-b]pyridin-3-yl]-4-[(2-hydroxypropyl)amino]-5,5-dimethyl-5,7-dihydro-6H-pyrrolo[2,3-d]pyrimidin-6-one] |  | 16
CC1(CNc2nc(-c3nn(Cc4ccccc4F)c4ncccc34)nc3c2C(C)(C)C(=O)N3)COC1 [Example 67, 2-[1-(2-fluorobenzyl)-1H-pyrazolo[3,4-b]pyridin-3-yl]-5,5-dimethyl-4-{[(3-methyloxetan-3-yl)methyl]amino}-5,7-dihydro-6H-pyrrolo[2,3-d]pyrimidin-6-one] | 0.03 | 

Continued, values first:

MEC (minimal effective concentration) [1] [μm] | IC50 [2] [nM] | Structure (SMILES)
0.1 |  | CC1(C)C(=O)Nc2nc(-c3nn(Cc4ccccc4F)c4ncccc34)nc(NCc3ccc(F)cc3)c21 [Example 77, 4-[(4-fluorobenzyl)amino]-2-[1-(2-fluorobenzyl)-1H-pyrazolo[3,4-b]pyridin-3-yl]-5,5-dimethyl-5,7-dihydro-6H-pyrrolo[2,3-d]pyrimidin-6-one]
0.1 |  | C[C@H](Nc1nc(-c2nn(Cc3ccccc3F)c3ncccc23)nc2c1C(C)(C)C(=O)N2)C(N)=O [Example 79, N2-{2-[1-(2-fluorobenzyl)-1H-pyrazolo[3,4-b]pyridin-3-yl]-5,5-dimethyl-6-oxo-6,7-dihydro-5H-pyrrolo[2,3-d]pyrimidin-4-yl}-L-alaninamide]
0.03 |  | CC1(C)C(=O)Nc2nc(-c3nn(Cc4ccccc4F)c4ncccc34)nc(NCC3CCCC3)c21 [Example 80, 4-[(cyclopentylmethyl)amino]-2-[1-(2-fluorobenzyl)-1H-pyrazolo[3,4-b]pyridin-3-yl]-5,5-dimethyl-5,7-dihydro-6H-pyrrolo[2,3-d]pyrimidin-6-one]
0.1 |  | CC1(C)C(=O)Nc2nc(-c3nn(Cc4ccccc4F)c4ncccc34)nc(N3CCNC(=O)C3)c21 [Example 82, 2-[1-(2-fluorobenzyl)-1H-pyrazolo[3,4-b]pyridin-3-yl]-5,5-dimethyl-4-(3-oxopiperazin-1-yl)-5,7-dihydro-6H-pyrrolo[2,3-d]pyrimidin-6-one]
 | 870 | CCOC(=O)C1(C)C(=O)Nc2nc(-c3nn(Cc4ccccc4F)c4ncccc34)nc(O)c21 (centres unmarked) [Example 101, Ethyl-2-[1-(2-fluorobenzyl)-1H-pyrazolo[3,4-b]pyridin-3-yl]-4-hydroxy-5-methyl-6-oxo-6,7-dihydro-5H-pyrrolo[2,3-d]pyrimidine-5-carboxylate]
